The values below come from publication PMC3898886, “P-glycoprotein (Mdr1a/1b) and breast cancer resistance protein (Bcrp) decrease the uptake of hydrophobic alkyl triphenylphosphonium cations by the brain” (Biochimica et Biophysica Acta, 2013).

SMILES strings stand for the structures.

Data set [1] has as its system P-glycoprotein (Mdr1a/1b) and breast cancer resistance protein (Bcrp). Nature of the data set: tissue and blood content of [3H] TPP compound after IV injection, transgenic mice lacking ABC transporters, compared with wild type. Particulars: for uptake into the brain, transgenic compared to wild type mice: radioactivity in brain over 20 h; for ratio of compound in the brain relative to the blood, transgenic versus WT: 5 h after IV injection of 100 nmol; for AUC for accumulation into the brain: transgenic mice.
Experimental: (§1) For injection the mice were placed in a restraining tube and injected by the tail vein with 100 nmol [^3H] compound (~ 400–500 nCi) in 100 μL sterile phosphate buffered saline (PBS) supplemented with 10% DMSO. A sample of the [^3H] compound solution injected was retained to calculate the specific activity, which was subsequently used to determine the tissue contents of the compound. Two WT mice and two transgenic mice were injected for each compound for each time point. […] At the indicated times after injection, the mice were killed by cervical dislocation and a blood sample of ~ 100–200 μL was obtained by cardiac puncture. The organs were then removed, cleared of blood by cutting into pieces and rinsing with saline, transferred to pre-chilled Eppendorf tubes on ice, weighed and stored at − 80 °C until processing. The tissues taken were: heart, kidneys, liver, brain, skeletal muscle (gastrocnemius) and white adipose tissue (subcutaneous). […] The mice were monitored after injection to ensure no pathology or distress.
Tissues were thawed at room temperature and transferred to 50 mL Falcon tubes. Ice-cold methanol (~ 4 °C; 1 mL/100 mg tissue wet weight) was added to the tissue and the tissue homogenised using an Ultra Turrax homogeniser (2 × 30 s on ice). The homogenate was transferred in 1 mL batches to 1.5 mL Eppendorf tubes and centrifuged (10,000 ×g for 8 min at 4 °C). The methanol extract was decanted into a 20 mL glass scintillation vial (Wheaton) and the methanol evaporated under a stream of N2. Further ice-cold methanol (1 mL/100 mg) was added to the tissue homogenate pellets, vortexed for 1 min, centrifuged as above and the methanol extract decanted to a fresh 20 mL glass scintillation vial and evaporated. This procedure was repeated 3 more times to give 5 extracts per tissue sample. […] Scintillant (OptiPhase HiSafe II; 10 mL) was added to each vial, [^3H] DPM content measured in a scintillation counter (LKB Wallac 1217 Rackbeta) using appropriate quench corrections and the total amount of radioactivity per sample calculated. The specific activity of the injected [^3H] compound was then used to calculate the tissue content as mol compound/g wet weight tissue.

The next data set concerns P-gp. Description: uptake of [3H] MitoF into tissues after pretreatment with CsA. Particulars: tissues 60 min later. Type of data set: in vivo, female C57/BL6 mice. As to the method:
To assess the effects of co-administration of cyclosporin A (CsA) on the uptake of MitoF, female C57/BL6 mice (~ 20 g) were used. The mice were injected with CsA (Sandimmun, Novartis supplied as 50 mg/mL solution which was diluted 1:4 in sterile PBS and injected 100 μL at 50 mg/kg) IV by tail vein injection, or with PBS carrier, followed 30 min later with [^3H] MitoF (100 nmol) by IV tail vein injection and 60 min later the mice were killed and the tissues harvested. All procedures were approved by the University of Otago animal ethics committee.

The conditions of data set [2]: published value; cited from earlier work.
The nature of data set [3]: tissue and blood content of [3H] TPP compound after IV tail vein injection, wild type mice. Particulars: 100 nmol IV; for uptake by adipose tissue / uptake by the heart / uptake by the kidneys: wild type and transgenic mice; for AUC for accumulation into the brain: WT mice.
Experimental: as §1
Tissues were thawed at room temperature and transferred to 50 mL Falcon tubes. Ice-cold methanol (~ 4 °C; 1 mL/100 mg tissue wet weight) was added to the tissue and the tissue homogenised using an Ultra Turrax homogeniser (2 × 30 s on ice). The homogenate was transferred in 1 mL batches to 1.5 mL Eppendorf tubes and centrifuged (10,000 ×g for 8 min at 4 °C). The methanol extract was decanted into a 20 mL glass scintillation vial (Wheaton) and the methanol evaporated under a stream of N2. Further ice-cold methanol (1 mL/100 mg) was added to the tissue homogenate pellets, vortexed for 1 min, centrifuged as above and the methanol extract decanted to a fresh 20 mL glass scintillation vial and evaporated. This procedure was repeated 3 more times to give 5 extracts per tissue sample. […] Scintillant (OptiPhase HiSafe II; 10 mL) was added to each vial, [^3H] […] The specific activity of the injected [^3H] compound was then used to calculate the tissue content as mol compound/g wet weight tissue.
The conditions of data set [4]: cited from earlier work.
Data set [5] is described as follows: monitoring of mice after IV injection for pathology or distress. Type of data set: in vivo. The note with it: 100 nmol IV.
Experimental: as §1
The subject of data set [6] is P-gp isoforms Mdr1a and Mdr1b. Further details: method as in PMID 19722701. The note with it: cited from earlier work.
[7] abbreviates: 100 nmol IV, 1 to 48 h post injection.
The mark [8] stands for this setting: 100 nmol IV, 1 to 20 h post injection.

Regarding `FCCCCCCCCCCC[P+](c1ccccc1)(c1ccccc1)c1ccccc1` [MitoF, Fluoroundecyltriphenylphosphonium], in data set [1] (100 nmol IV), the “uptake in the liver, transgenic mice compared to controls” value (from here on “uptake … compared to controls”) is “increase in the uptake”; the “uptake into heart, kidney and white adipose tissue, transgenic versus wild type mice” value was “no difference”; the “uptake into the brain, transgenic compared to wild type mice” value is reported as “greater uptake into the brain”. Moreover, in data set [1] (setting [7]), the “increase of brain AUC, transgenic versus WT” value is ~ 9 fold and the “AUC for accumulation into the brain” value came out at 16.6 nmol·h/g wet weight. In addition, in data set [1], the “ratio of compound in the brain relative to the blood, transgenic versus WT” value is on record as “increased uptake”. In the data set on P-gp (CsA 50 mg/kg IV 30 min before 100 nmol [3H] MitoF IV), the “effect of CsA on uptake into the brain, muscle, fat, heart or kidney” value is on record as “did not affect”. Besides, the “effect of CsA on uptake into the liver” value with P-gp (CsA 50 mg/kg IV 30 min before 100 nmol [3H] compound IV) is “increase uptake”. In data set [2], the octan-1-ol/PBS partition coefficient is recorded as 740 ± 100. In data set [3], the “uptake by adipose tissue” value is reported as “lower uptake”, the “uptake by the heart” value is “less extensive uptake” and the “uptake by the kidneys” value was “extensive uptake”. Besides, the “AUC for accumulation into the brain” value in data set [3] (1 to 48 h post injection) was 1.9 nmol·h/g wet weight.

As for `COC1=C(OC)C(=O)C(CCCCCCCCCC[P+](c2ccccc2)(c2ccccc2)c2ccccc2)=C(C)C1=O` [MitoQ, mitoquinone], in data set [1] (100 nmol IV), the “uptake … compared to controls” value is on record as “increase in the uptake”; the “uptake into heart, kidney and white adipose tissue, transgenic versus wild type mice” value was “no difference”; the “uptake into the brain, transgenic compared to wild type mice” value is on record as “greater uptake into the brain”. Further, in data set [1] (setting [8]), the “increase of brain AUC, transgenic versus WT” value is on record as ~ 4 fold and the “AUC for accumulation into the brain” value was found to be 2.3 nmol·h/g wet weight. Also, the “ratio of compound in the brain relative to the blood, transgenic versus WT” value in data set [1] was “increased uptake”. Moreover, the “effect of CsA on biliary excretion” value in data set [4] is on record as “inhibited”. Further, the “proportion of an IV dose excreted by the biliary pathway” value in data set [4] (within 4 h) is 25%. Also, the octan-1-ol/PBS partition coefficient in data set [2] is 2760. Besides, the “toxicity of the injected amount” value in data set [5] was “non-toxic”. In addition, in data set [3], the “uptake by adipose tissue” value is listed as “lower uptake”, the “uptake by the heart” value was “less extensive uptake” and the “uptake by the kidneys” value is listed as “extensive uptake”. The “AUC for accumulation into the brain” value in data set [3] (1 to 20 h post injection) was 0.6 nmol·h/g wet weight.

On to `C[P+](c1ccccc1)(c1ccccc1)c1ccccc1` [TPMP, methyltriphenylphosphonium, reference compound], for which, in data set [1] (100 nmol IV), the “uptake … compared to controls” value is listed as “not” and the “uptake into the brain, transgenic compared to wild type mice” value is “no difference”. The “change of brain AUC, transgenic versus WT” value in data set [1] (100 nmol IV, 1 to 5 h post injection) was “unchanged”. In data set [3], the “uptake by adipose tissue” value was “lower uptake” and the “uptake by the heart” value is reported as “less extensive uptake”. In data set [3] (1 to 5 h post injection), the “AUC for accumulation into the brain” value is on record as 0.87 nmol·h/g wet weight.

As to `c1ccc([P+](c2ccccc2)(c2ccccc2)c2ccccc2)cc1` [tetraphenylphosphonium cation, tetraphenylphosphonium], the “effect of ablation of Mdr1a and Mdr1b on uptake across the BBB” value in data set [6] is given as “did not increase”.
